In US12265087B2, “Olfactory receptor as microglia marker and use thereof” (DAEGU GYEONGBUK INSTITUTE OF SCIENCE AND TECHNOLOGY, priority 2019, dated 2025):
Entries after “also recorded” stand apart in the source; their conditions may differ.

Legend:
microglia [1] = assay: GFP intensity / morphology of microglia in CX3CR1 GFP/+ mice; type: in vivo, mouse; details: 2-PF treated CX3CR1 GFP/+ mice
Description: To analyze a morphological change in microglia activation, 9-week-old CX3CR1^GFP/+ mice were used. Two hours after an IP containing or not containing 2-PF was injected into two mice, brain sections were collected by cryosection. A 40-μm-thick brain tissue fragment was prepared by […], and a GFP signal of microglia was measured using a 40× magnification confocal microscope. A GFP-pixel signal of microglia was analyzed using Zeiss ZEN Software (Zeiss).

microglia [2] = assay: Ex vivo phagocytosis of microglia in brain slices (time-lapse confocal imaging); type: cell-based, mouse; details: brain slices of CX3CR1 GFP/+ mice
Description: In this experiment, to examine the phagocytotic action of microglia, the brain of a 9-week-old male CX3CR1^GFP/+ mouse was sliced to a thickness of 150 μm using a vibratome (Leica VT1200), and stored in a ice-cooled artificial cerebrospinal fluid (aCSF: 120 mM NaCl, 25 mM NaHCO3, 1.25 mM NaH2PO4, 5 mM KCl, 1 mM CaCl2, 1 mM MgSO4, […], pH7.4). Afterwards, the sliced brain was incubated to remove cell debris. Oxygen-treated aCSF was pretreated in a perfusion chamber at 37° C. for 2 hours. Subsequently, before incubation, the sliced brain was incubated with 500 μl of aCSF containing 9.10×10^7 microspheres (360/407 […]; #17458; Polysciences), and covered with a customized nylon grid. Time lapse videos were recorded every minute for 92 minutes using a confocal microscope. The number of phagocytosing microglia was counted from the images.

[3] = test system: Hana3A cells expressing Olfr110; assay: Boyden chamber chemotaxis assay, Hana3A cells expressing Olfr110; type: cell-based; details: 2-PF 10, 100 and 1000 μM
Description: Chemotaxis was measured using a multi-well Boyden chamber. More specifically, a polycarbonate filter (8 μm pore; #101-8; Neuroprobe) was coated with […] fibronectin (Sigma-Aldrich) in PBS for 2 hours, and the coated filter was installed in a Boyden chamber. In addition, the bottom side of a plate was filled with serum-free DMEM containing 2-PF or a culture supernatant. Subsequently, microglia or Hana3A cells were transfected with an OR construct, and then suspended in serum-free DMEM. The microglia were kept at 37° C. for 4 hours, and the Hana3A cells for 8 hours. Cells that migrated to the bottom surface were fixed with 4% PFA, and stained with hematoxylin for 10 minutes. The migrated cells were counted under a light microscope in five randomly selected fixed […] fields (200×) using a scored eyepiece. A chemotaxis index was defined as the migrated cell number normalized against the untreated group.

primary microglia = assay: Phagocytosis of FITC-dextran by primary microglia (FACS); type: cell-based, mouse; details: 100, 300 and 500 μM
Description: Primary microglia were seeded in 24-well plates (5×10^5 cells/well) and incubated for 24 hours. Cells were preincubated with 2-PF or Sup for 30 minutes, incubated with FITC-dextran (1 mg/ml, 20 mg/ml in PBS; #FD70S; Sigma Aldrich) in serum-free DMEM at 37° C. for […], and washed with PBS at 4° C. The cells were detached with 0.25% trypsin (#15090-046; Thermo Fisher Scientific) in PBS, and the detached cells were analyzed with FACS Accuri™ C6 (BD Biosciences). Mean fluorescence intensity (MFI) was calculated by integrating fluorescence histograms under each condition using the software. A phagocytosis index was defined as MFI, normalized against an untreated group.

Olfr110 = biological target: T1, Olfr110 (Mus musculus, UniProt A2RT31); assay: Luciferase assay in Hana3A cells transfected with Olfr110; type: cell-based
T1 construct: Full-length odorant receptor genes from mouse and human genomic DNAs were amplified using appropriate primers; Lucy (N); Flag (N); Rho (N); expressed in transfected cells; host or cells: Hana3A cells, co-transfected with RTP1S, pCRELuc and pRL-SV40
T1 sequence (A2RT31 1-317): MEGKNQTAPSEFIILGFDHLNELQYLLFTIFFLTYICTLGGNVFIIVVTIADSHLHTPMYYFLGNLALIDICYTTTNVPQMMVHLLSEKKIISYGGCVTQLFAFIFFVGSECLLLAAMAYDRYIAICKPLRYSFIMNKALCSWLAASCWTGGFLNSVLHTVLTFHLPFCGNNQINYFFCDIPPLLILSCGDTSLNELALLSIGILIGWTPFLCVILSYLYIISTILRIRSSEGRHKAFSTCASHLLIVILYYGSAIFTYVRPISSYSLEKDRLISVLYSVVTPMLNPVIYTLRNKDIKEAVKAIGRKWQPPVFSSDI
Description: A Dual-Glo luciferase assay system (#E2940; Promega) was used for OR ligand screening. More specifically, Hana3A cells were seeded in white polystyrene 96-well plates (#353296; BD Biosciences) one day before transfection. pCRELuc (1 μg; #219076; Agilent Technologies), pRL-SV40 (1 μg; #E2231; Promega), RTP1S (1 μg), and OR (6 μg; or Mock) vectors were transfected for 24 hours in each plate. Analysis was performed using Lipofectamine 2000 (#11668-019; Thermo Fisher Scientific) according to the manufacturer's protocols. Transfected cells were stimulated at 37° C. for 4 hours with various concentrations of diluted odorants in a CD293 medium (#11913-019; Thermo Fisher Scientific). The activity of luciferase was normalized to that of Renilla luciferase. Luminescence was measured using a SpectraMax L microplate reader (Molecular Devices).

microglia [4] = assay: Fura-2/AM calcium imaging of microglia; type: cell-based, mouse; details: 2-PF 100, 300, 1000 μM
Description: Twenty-four hours after newly isolated microglia were mounted on poly-D-lysine-coated 18-mm aperture microscope cover glasses (#0111580; Marienfeld), the microglia were incubated in a superfusion chamber for 30 minutes. The chamber contained 4 μM of Fura-2/AM (Ca^2+-sensitive fluorescent dye; #F1221; Thermo Fisher Scientific) in Ringer's solution (115 mM NaCl, 2.5 mM KCl, 1 mM CaCl2, 1.5 mM MgCl2, 4.5 mM HEPES, pH 7.4) filtered through a filter with a 0.22-μm pore. After calcium staining culture, the chamber was placed under an inverted microscope and washed with Ringer's solution for 20 minutes prior to […] treatment. Here, a flow rate of the solution is 12 ml/min. Subsequently, primary microglia were treated with 300 μM ATP (#A2383; Sigma Aldrich) for 5 seconds. After washing for 5 minutes, the primary microglia were treated with a 100 μM 2-PF solution for 5 seconds. This step was accomplished with two different concentrations (300 and 1000 μM) of 2-PF solution. Finally, the microglia were treated with a 300 μM ATP solution for 5 seconds. An emitted fluorescent material was photographed every 2 seconds using a CCD camera. Pseudo-color images were converted using fractional fluorescence changes (ΔF/F, Δ[Ca^2+]i). In addition, these images show changes in intracellular calcium ions. […]

cerebral cortex = assay: Cytokine mRNA in the cerebral cortex after IP injection (qRT-PCR); type: in vivo, mouse; details: 2-PF injection
From the text: To measure mRNA, RNA was isolated from red blood cells, microglia, astrocytes, Hana3A cells or cerebral cortex cells using a MagNa lyser (Roche Molecular Diagnostics) with TRIzol reagent (Invitrogen, Carlsbad, Calif.) according to the manufacturer's protocols. Afterward, cDNA was synthesized through reverse transcription using isolated mRNA (using PrimeScript™ 1st str and cDNA Synthesis kit-#6110; Takara Bio Inc.). This process was quantitatively measured in real time through quantitative real-time-PCR (using a LightCycler® 480 SYBR Green I Master). The measurement values were calculated using a 2-ΔΔCt method.

Which “intensity of GFP expression of microglia” value (microglia [1]) does the source give for `CCCCCc1ccco1` [2-PF, 2-pentylfuran] here?
Its value is “highly increased”.

And the “activity of phagocytosis of microglia ex vivo” value (microglia [2])?
Its value is “increased”.

And the “mobility of Olfr110 cells (chemotaxis assay)” value [3]?
The value was “increased in mobility in a concentration-dependent manner”.

And the phagocytosis (primary microglia)?
Its phagocytosis is “significantly increased in a concentration-dependent manner”.

What about the “mode of action at Olfr110” value (Olfr110) of the same compound?
The value was “agonist”.

And the “reactivity with Olfr110 (relative luciferase activity)” value (Olfr110; Hana3A cells)?
The value was “selective ligands; also recorded: showed the highest reactivity with Olfr110”.

What about the “intracellular calcium ion levels” value (microglia [4]) of the same compound?
Its value is “increased according to an injection amount”.

And the “expression level of inflammatory cytokines (Tnf, Il6, Il1b, Il10)” value (cerebral cortex)?
Its value is “significantly increased”.
